Laboratory results as given in patent US4599333A, “Hydrazinopyridazine compound, process for production thereof, and use thereof as medicament” (Teikoku Hormone Mfg. Co., Ltd., priority 1984, dated 1986).

Key:
Assay type in all cases: in vivo, male Wistar rats
[1] = molecular target: T1, β1-adrenoceptors (Rattus norvegicus, UniProt P18090); experiment: β1-adrenoceptor blocking action (inhibition of increase in heart rate exerted by isoproterenol) and selectivity for β1-adrenoceptors; conditions: blocking activity ratio from ID50 doses; Table 2
T1 construct: Experiments were done using male Wistar rats; from tissue; host or cells: whole anesthetized male Wistar rat (in vivo; heart rate)
T1 sequence (P18090 whole entry): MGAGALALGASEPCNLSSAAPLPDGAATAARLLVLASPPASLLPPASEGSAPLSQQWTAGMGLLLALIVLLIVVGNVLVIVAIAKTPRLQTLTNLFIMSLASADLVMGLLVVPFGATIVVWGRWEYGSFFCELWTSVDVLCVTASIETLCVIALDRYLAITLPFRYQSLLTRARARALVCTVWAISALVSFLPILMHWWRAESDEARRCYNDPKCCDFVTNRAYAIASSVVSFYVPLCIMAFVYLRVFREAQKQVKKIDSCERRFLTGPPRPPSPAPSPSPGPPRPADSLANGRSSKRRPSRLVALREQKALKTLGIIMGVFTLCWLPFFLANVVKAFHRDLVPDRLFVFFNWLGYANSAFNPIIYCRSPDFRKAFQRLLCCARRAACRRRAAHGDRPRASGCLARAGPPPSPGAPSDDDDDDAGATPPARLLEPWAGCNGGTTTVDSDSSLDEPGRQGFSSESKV
Experimental: (§1) Experiments were done using male Wistar rats weighing between 300 and 400 g, anesthetized with sodium pentobarbital (60 mg/kg i.p.). The blood pressure was directly measured by connecting a cannula inserted in the femoral artery to a pressure transducer and the heart rate was calculated from the pulse waves of the blood pressure tracings. Each value shown here was obtained from three animals. The test compounds were individually dissolved in physiological saline solution or a 0.01N aqueous solution of hydrochloric acid.
(§2) (1) Measurement of β-adrenoceptor blocking activity
The increased heart rate before injection of the test compound was represented by H1. Three minutes after i.v. injection of the test compound, isoproterenol (0.1 μg/kg i.v.) was again administered and then the change in heart rate was measured. The maximum increase in heart rate after injection of the test compound was designated as H2. From these values, the percent inhibition of the change in heart rate was calculated in accordance with the following equation.
(§3) By repeating the procedure mentioned above at various doses of the test compounds, dose-response curves were prepared.

[2] = molecular target: T2, β2 (Rattus norvegicus, UniProt P10608); experiment: β2-adrenoceptor blocking action (inhibition of fall in blood pressure exerted by isoproterenol); conditions: iv, 50% inhibition of fall in blood pressure by isoproterenol 0.1 μg/kg i.v., Table 2, read-out: β-adrenoceptor blocking action ID50 β2
T2 construct: Experiments were done using male Wistar rats; from tissue; host or cells: whole anesthetized male Wistar rat (in vivo; arterial blood pressure)
T2 sequence (P10608 whole entry): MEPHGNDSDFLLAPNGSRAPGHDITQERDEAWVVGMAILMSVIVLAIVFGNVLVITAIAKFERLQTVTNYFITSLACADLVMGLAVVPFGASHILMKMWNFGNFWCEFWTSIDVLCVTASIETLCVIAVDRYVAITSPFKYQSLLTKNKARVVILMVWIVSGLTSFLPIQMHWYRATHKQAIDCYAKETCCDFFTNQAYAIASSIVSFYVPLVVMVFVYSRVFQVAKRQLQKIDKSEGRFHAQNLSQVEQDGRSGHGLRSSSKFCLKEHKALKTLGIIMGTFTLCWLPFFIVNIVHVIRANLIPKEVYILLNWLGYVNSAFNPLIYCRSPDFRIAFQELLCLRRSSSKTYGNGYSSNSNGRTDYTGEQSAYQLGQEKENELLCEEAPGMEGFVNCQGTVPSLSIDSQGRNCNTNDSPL
Experimental: as §1, §2, §3

[3] = test system: heart rate; experiment: Heart rate increase produced by isoproterenol; conditions: single i.v. injection 0.1 μg/kg, before test compound
Experimental: Experiments were done using male Wistar rats weighing between 300 and 400 g, anesthetized with sodium pentobarbital (60 mg/kg i.p.). The blood pressure was directly measured by connecting a cannula inserted in the femoral artery to a pressure transducer and the heart rate was calculated from the pulse waves of the blood pressure tracings. Each value shown here was obtained from three animals. The test compounds were individually dissolved in physiological saline solution or a 0.01N aqueous solution of hydrochloric acid. A single intravenous (i.v.) injection of isoproternol (0.1 μg/kg) produced an increase in heart rate by approximately 90 beats/min. The increased heart rate before injection of the test compound was represented by H1. Three minutes after i.v. injection of the test compound, isoproterenol (0.1 μg/kg i.v.) was again administered and then the change in heart rate was measured. The maximum increase in heart rate after injection of the test compound was designated as H2. From these values, the percent inhibition of the change in heart rate was calculated in accordance with the following equation.

Row | SMILES | Selectivity for β1-adrenoceptors (β1/β2) [1] | ED50 [2] [mg/kg] | increase in heart rate [3]
1 | CC(C)NCC(O)COc1ccc(CC(N)=O)cc1 (stereo not drawn) [Atenolol, reference compound] | 30 | 1.5 | –
2 | CC(C)(COc1ccc(NN)nn1)NCC(O)COc1ccccc1Cl (stereo not drawn) [B, 1-(2-chlorophenoxy)-3-[1,1-dimethyl-2-(3-hydrazino-6-pyridazinyloxy)ethylamino]-2-propanol] | 29 | 0.23 | –
3 | Cc1ccccc1OCC(O)CNC(C)(C)COc1ccc(NN)nn1 (stereo not drawn) [C, 1-(2-methylphenoxy)-3-[1,1-dimethyl-2-(3-hydrazino-6-pyridazinyloxy)ethylamino]-2-propanol] | 30 | 0.45 | –
4 | CC(C)(COc1ccc(NN)nn1)NCC(O)COc1ccccc1C#N (stereo not drawn) [Compound I, 1-(2-cyanophenoxy)-3-[1,1-dimethyl-2-(3-hydrazino-6-pyridazinyloxy)ethylamino]-2-propanol] | 5 | 0.1 | –
5 | Cc1ccc(C#N)c(OCC(O)CNC(C)(C)COc2ccc(NN)nn2)c1 (stereo not drawn) [K, 1-(2-cyano-5-methylphenoxy)-3-[1,1-dimethyl-2-(3-hydrazino-6-pyridazinyloxy)ethylamino]-2-propanol] | 2 | 0.1 | –
6 | C#Cc1ccccc1OCC(O)CNC(C)(C)COc1ccc(NN)nn1 (stereo not drawn) [R, 1-(2-ethinylphenoxy)-3-[1,1-dimethyl-2-(3-hydrazino-6-pyridazinyloxy)ethylamino]-2-propanol] | > 5 | – | –
7 | CC(C)NCC(O)c1ccc(O)c(O)c1 (stereo not drawn) [isoproternol, isoproterenol] | – | – | approximately 90 beats/min
